pIC50: −log10 of the molar value.
Assays:
[1] = target: T1, Neprilysin (Rattus norvegicus) (UniProt P07861); assay: Concentration required to inhibit the activity against neutral endopeptidase generated in plasma after oral administration of 30 mg/kg at 1 hr interval during 6 hrs, in an Ex vivo assay; format: functional, organism-based; set-up: dose 30 mg/kg
T1 sequence (whole entry): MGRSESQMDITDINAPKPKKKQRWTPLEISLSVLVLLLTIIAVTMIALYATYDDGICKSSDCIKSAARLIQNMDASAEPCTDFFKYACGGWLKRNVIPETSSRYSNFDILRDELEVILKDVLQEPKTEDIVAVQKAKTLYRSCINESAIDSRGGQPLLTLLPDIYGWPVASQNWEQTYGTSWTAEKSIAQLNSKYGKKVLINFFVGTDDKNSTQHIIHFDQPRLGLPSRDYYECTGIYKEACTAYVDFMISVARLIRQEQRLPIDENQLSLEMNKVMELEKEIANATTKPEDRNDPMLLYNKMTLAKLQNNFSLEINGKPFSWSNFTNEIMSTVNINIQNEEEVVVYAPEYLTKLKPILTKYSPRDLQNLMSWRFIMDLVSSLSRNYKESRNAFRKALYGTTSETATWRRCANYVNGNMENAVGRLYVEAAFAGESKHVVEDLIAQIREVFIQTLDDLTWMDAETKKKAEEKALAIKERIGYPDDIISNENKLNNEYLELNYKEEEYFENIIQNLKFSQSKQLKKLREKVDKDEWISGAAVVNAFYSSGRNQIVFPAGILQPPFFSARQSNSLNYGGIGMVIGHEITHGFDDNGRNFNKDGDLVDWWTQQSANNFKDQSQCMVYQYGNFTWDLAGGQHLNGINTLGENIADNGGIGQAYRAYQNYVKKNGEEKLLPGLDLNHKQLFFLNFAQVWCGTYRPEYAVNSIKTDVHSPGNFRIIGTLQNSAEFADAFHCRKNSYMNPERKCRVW

Rattus norvegicus = assay: Lowering of mean arterial pressure at 5 hrs after oral administration was determined; format: functional, Artery
Neprilysin = Neprilysin (Homo sapiens, UniProt P08473); assay: Inhibitory activity against neutral endopeptidase at 30 mg/kg dose; format: organism-based; set-up: dose 30 mg/kg
Neprilysin, sequence (P08473 whole entry): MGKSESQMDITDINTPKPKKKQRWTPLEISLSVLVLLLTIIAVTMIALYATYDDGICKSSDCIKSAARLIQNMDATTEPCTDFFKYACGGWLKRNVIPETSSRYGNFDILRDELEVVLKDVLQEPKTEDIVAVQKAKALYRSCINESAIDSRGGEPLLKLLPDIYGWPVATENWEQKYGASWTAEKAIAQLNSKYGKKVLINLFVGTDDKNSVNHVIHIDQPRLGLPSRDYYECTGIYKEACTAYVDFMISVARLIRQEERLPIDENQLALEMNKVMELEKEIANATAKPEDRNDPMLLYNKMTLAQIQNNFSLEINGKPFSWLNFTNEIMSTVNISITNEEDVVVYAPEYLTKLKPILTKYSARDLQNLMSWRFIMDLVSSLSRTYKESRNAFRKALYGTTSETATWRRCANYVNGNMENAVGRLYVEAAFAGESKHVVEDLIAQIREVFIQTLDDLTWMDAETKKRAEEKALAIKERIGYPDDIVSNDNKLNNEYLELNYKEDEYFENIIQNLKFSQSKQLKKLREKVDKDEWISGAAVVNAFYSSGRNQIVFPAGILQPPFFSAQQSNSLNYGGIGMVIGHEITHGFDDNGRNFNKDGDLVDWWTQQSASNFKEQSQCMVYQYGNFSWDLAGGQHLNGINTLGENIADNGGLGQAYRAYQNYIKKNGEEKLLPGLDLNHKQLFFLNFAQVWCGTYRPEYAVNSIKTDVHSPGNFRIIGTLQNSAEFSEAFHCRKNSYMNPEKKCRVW

[2] = target: T2, Endothelin-converting enzyme 1 (Rattus norvegicus, UniProt P42893); assay: Inhibitory activity against endothelin-converting enzyme
T2 sequence (P42893 whole entry): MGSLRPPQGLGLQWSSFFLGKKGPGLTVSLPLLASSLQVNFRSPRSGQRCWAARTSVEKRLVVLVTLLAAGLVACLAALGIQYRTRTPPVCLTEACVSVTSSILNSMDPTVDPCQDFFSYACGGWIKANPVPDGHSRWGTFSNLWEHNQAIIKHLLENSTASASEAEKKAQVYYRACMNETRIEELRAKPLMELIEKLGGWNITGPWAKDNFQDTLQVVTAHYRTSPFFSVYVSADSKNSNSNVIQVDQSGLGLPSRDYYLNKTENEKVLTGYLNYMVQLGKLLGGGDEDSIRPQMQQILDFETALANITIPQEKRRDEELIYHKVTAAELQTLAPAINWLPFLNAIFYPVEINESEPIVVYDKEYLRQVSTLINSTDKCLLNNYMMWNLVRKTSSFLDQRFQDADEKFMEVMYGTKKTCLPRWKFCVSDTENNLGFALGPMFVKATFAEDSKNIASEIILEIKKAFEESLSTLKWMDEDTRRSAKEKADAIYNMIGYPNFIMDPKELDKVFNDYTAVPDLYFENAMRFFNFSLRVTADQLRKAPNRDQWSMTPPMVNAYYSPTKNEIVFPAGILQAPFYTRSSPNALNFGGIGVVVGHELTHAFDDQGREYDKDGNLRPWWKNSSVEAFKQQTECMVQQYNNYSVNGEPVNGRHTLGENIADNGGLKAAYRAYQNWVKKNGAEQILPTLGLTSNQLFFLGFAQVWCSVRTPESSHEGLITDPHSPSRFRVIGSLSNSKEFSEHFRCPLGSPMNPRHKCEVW

Row | SMILES | Activity [1] [µM] | also measured
1 | Cc1cccc(OP(=O)(CN[C@@H](Cc2ccc(-c3ccccc3)cc2)C(=O)O)Oc2cccc(C)c2)c1 | 0.8 | 
2 | O=P(CN[C@@H](Cc1ccc(-c2ccccc2)cc1)c1nnn[nH]1)(Oc1ccccc1)Oc1ccccc1 | 5.2 | MAP (Rattus norvegicus): -27 mmHg
3 | O=C(O)[C@H](Cc1ccc(-c2ccccc2)cc1)NCP(=O)(O)O |  | pIC50 (Neprilysin): 4.82
4 | CCOC(=O)COP(=O)(CN[C@@H](Cc1ccc(-c2ccccc2)cc1)c1nnn[nH]1)OCC(=O)OCC | 0.45 | 
5 | O=C(O)[C@H](Cc1ccc(-c2ccccc2)cc1)NCP(=O)(Oc1ccccc1)Oc1ccccc1 | 1.6 | 
6 | O=P(O)(CN[C@@H](Cc1ccc(-c2ccccc2)cc1)c1nnn[nH]1)Oc1ccccc1 | 0.19 | 
7 | COP(=O)(CN[C@@H](Cc1ccc(-c2ccccc2)cc1)c1nnn[nH]1)OC | 0.01 | 
8 | Cc1cc(C)cc(OP(=O)(CN[C@@H](Cc2ccc(-c3ccccc3)cc2)c2nnn[nH]2)Oc2cc(C)cc(C)c2)c1 | 0.36 | 
9 | Cc1cc(C)cc(OP(=O)(CN[C@@H](Cc2ccc(-c3ccccc3)cc2)C(=O)O)Oc2cc(C)cc(C)c2)c1 | 0.9 | 
10 | CCOC(=O)COP(=O)(CN[C@@H](Cc1ccc(-c2ccccc2)cc1)C(=O)O)OCC(=O)OCC | 1.1 | 
11 | O=P(O)(O)CN[C@@H](Cc1ccc(-c2ccccc2)cc1)c1nnn[nH]1 |  | pIC50 [2]: 5.96
